Test results published in patent US20130029928A1 (priority 2010, published 2013).
Structures can show the parent of a compound that is named as a salt. Where two headings read alike, the source gives them in different places.

Tests used:
[1] = system: panel of tumour cell lines; test: ATP cytotoxicity assay on the panel of tumour cell lines (CXR1002 alone; test items alone vs combined with CXR1002); settings: a number of the cell lines; single dose of CXR1002; 48 hours
Method: (§2) The SRB assay was performed according to the method specified by the NIC/NIH. […] Assay replicates were independent in time and up to 4 replicates were performed per cell line.
Cells were plated at the optimal plating density for that cell line in 96-well plates and allowed to attach overnight. The next day, the medium was removed and replaced with fresh medium containing the dose ranges of test items. The cells were exposed to 5-FU, cisplatin, docetaxel, doxorubicin, geldanamycin, gemcitabine, rapamycin or roscovitine in Roswell Park Memorial Institute (RPMI) medium containing 10% Foetal Calf Serum (FCS) and 2 mM Glutamine at 37° C. and 5% CO2 for 48 hours. […] There were 3 replicates for each test item concentration.
(§3) Following exposure to Test Items, the CellTitre-Glo Luminescent Cell Viability Assay to measure ATP content was performed according to the manufacturer's detailed instructions (Promega Corporation, Technical Bulletin No. 288, and Cell notes, Issue 10, 2004).

[2] = system: normal pancreas tissue; test: Microarray ER stress response in normal pancreas (28 day study in rat); format: in vivo
Text: Chemical toxicants such as tunicamycin and thapsigargin cause an accumulation of unfolded protein aggregates in the ER lumen (Schroder (2008)), (Harding (2002)), (Zhang (2008)). Whilst it is fair to say that many chemicals, drugs and toxicants induce ER stress, not all do. […] The phthalate DEHP and the PPARα agonist WY14,643 were also studied.

[3] = system: Breast cancer cell lines; settings: read-out: IC50 (Concentration, literature); Mol. Cancer Ther. (2002); cited from earlier work
[4] = system: Male Sprague Dawley rats; test: Dietary APFO (300 ppm) study in rats: plasma glucose, triglycerides, cholesterol, AST, ALT, APFO level; format: in vivo, rat; parameters: Glucose / Triglycerides / ALT / AST: unit not given here; settings: for ALT / AST / Glucose / Triglycerides: plasma, 300 ppm in diet
[5] = system: hepatic peroxisome proliferation (PPARα); test: Hepatic peroxisome proliferation (cyanide-insensitive palmitoyl CoA oxidation) in rats; format: in vivo, rat; settings: administration to rats
Text: The earliest recognised characteristic of PPARα agonists was their ability to induce peroxisome proliferation in hepatocytes. The PPARα response is reflected in the increased transcription of mitochondrial and peroxisomal lipid metabolism, sterol, and bile acid biosynthesis and retinol metabolism genes (Andersen (2008)).
Peroxisome proliferation occurs as a result of the interaction of a chemical with PPARα. This leads to an increase in the synthesis of peroxisomal and lipid-metabolising enzymes and, consequently, an increase in size and number of peroxisomes. Cyanide-insensitive palmitoyl CoA oxidation is an accepted marker of peroxisome proliferation, and was used to highlight PPARα activation in vitro and in vivo.

[6] = system: MDA-MB-157; test: SRB cytotoxicity assay 48 hr; format: cell-based, human; settings: Homo sapiens, MDA-MB-157, 48 h, read-out: IC50 Values After 48 Hrs Exposure
Method: as §2

[7] = system: A2780; test: SRB cytotoxicity assay 48 hr; format: cell-based, human; settings: Homo sapiens, A2780, 48 h, read-out: IC50 Values After 48 Hrs Exposure
Method: as §2

[8] = system: panel of human tumour-derived cell lines; test: BrdU incorporation (cell proliferation) in the SRB cell line panel; format: cell-based; settings: 48 hrs
[9] = system: Hep3B; test: SRB cytotoxicity assay 48 hr; format: cell-based, human; settings: Homo sapiens, 48 h, read-out: IC50 Values After 48 Hrs Exposure
Method: as §2

[10] = system: A375; test: SRB cytotoxicity assay 48 hr; format: cell-based, human; settings: Homo sapiens, A-375, 48 h, read-out: IC50 Values After 48 Hrs Exposure
Method: as §2

[11] = without reported adverse effects; cited from earlier work
[12] = system: A549; test: SRB cytotoxicity assay 48 hr; format: cell-based, human; settings: Homo sapiens, A549, 48 h, read-out: IC50 Values After 48 Hrs Exposure
Method: as §2

[13] = system: panel of human tumour-derived cell lines; test: Hoechst 3342 staining (apoptotic cells) in the SRB cell line panel; format: cell-based
[14] = system: Male Sprague Dawley rats; test: Dietary APFO (300 ppm) study in rats: plasma glucose, triglycerides, cholesterol, AST, ALT, APFO level; format: in vivo, rat; parameters: Triglycerides / Cholesterol / Glucose: unit not given here; settings: 300 ppm in diet
Method: (§1) Rats were sacrificed at 7, 14, 28 and 84 days. Blood from each study animal was taken by cardiac puncture into lithium/heparin-coated tubes for separation of plasma. Plasma was analysed for glucose, triglycerides, cholesterol, AST and ALT (unpublished data).

[15] = as above; format: in vivo, rat; parameters: Triglycerides / Cholesterol / Glucose: unit not given here; settings: male, Sprague Dawley, rat, oral, 300 ppm in diet
Method: as §1

[16] = system: PC3; test: SRB cytotoxicity assay 48 hr; format: cell-based, human; settings: Homo sapiens, PC-3, 48 h, read-out: IC50 Values After 48 Hrs Exposure
Method: as §2

[17] = system: HT-29; test: SRB cytotoxicity assay 48 hr; format: cell-based, human; settings: Homo sapiens, HT-29, 48 h, read-out: IC50 Values After 48 Hrs Exposure
Method: as §2

[18] = system: CaCo-2; test: SRB cytotoxicity assay 48 hr; format: cell-based, human; settings: read-out: IC50 Values After 48 Hrs Exposure
Method: as §2

[19] = system: HepG2; test: SRB cytotoxicity assay 48 hr; format: cell-based, human; settings: read-out: IC50 Values After 48 Hrs Exposure
Method: as §2

[20] = target: CYP2C9 (Homo sapiens, UniProt P11712); test: Cytochrome P450 isozyme inhibition; format: in vitro ADME; settings: under the conditions used (unpublished data); read-out: IC50 towards CYP2C9
Text: There is no evidence that APFO is metabolised in mammals once dissociated to form perfluorooctanoate.

[21] = system: MCF-7; test: SRB cytotoxicity assay 48 hr; format: cell-based, human; settings: Homo sapiens, MCF7, 48 h, read-out: IC50 Values After 48 Hrs Exposure
Method: as §2

[22] = following oral exposure; literature; cited from earlier work
[23] = in vivo; cited from earlier work
[24] = cited from earlier work
[25] = system: rats; settings: cited from earlier work
[26] = system: rats; settings: doses below those causing maternal toxicity; cited from earlier work
[27] = target: liver X receptor β (LXRβ) (Homo sapiens, UniProt P55055); settings: ref (14); cited from earlier work
[28] = system: primary rat hepatocytes; settings: Bjork (2009); cited from earlier work
[29] = target: retinoid X receptor α (RXRα) (Homo sapiens, UniProt P19793); settings: ref (14); cited from earlier work
[30] = system: HPAFII; test: ATP depletion cytotoxicity assay 48 hr; format: cell-based, human; settings: DPQ 20 μM + CXR1002 0-1 mM; HPAFII
Method: as §3
(§4) Cells were plated at the optimal plating density for that cell line in 96-well plates and allowed to attach overnight. […] Cells were exposed to these compounds in Roswell Park Memorial Institute (RPMI) medium containing 10% Foetal Calf Serum (FCS) and 2 mM Glutamine at 37° C. and 5% CO2 for 48 hours. There were 3 replicates for each test item concentration.
(§5) Following exposure to Test Items, the CellTitre-Glo Luminescent Cell Viability Assay to measure ATP content will be performed according to the manufacturer's detailed instructions (Promega Corporation, Technical Bulletin No. 288, and Cell notes, Issue 10, 2004).

[31] = system: SW1353; test: ATP depletion cytotoxicity assay 48 hr; format: cell-based, human; settings: DPQ 20 μM + CXR1002 0-1 mM; SW1353
Method: as §3, §4, §5

[32] = system: Capan2; test: ATP depletion cytotoxicity assay 48 hr; format: cell-based, human; settings: DPQ 20 μM + CXR1002 0-1 mM; Capan2
Method: (§6) Assay replicates were independent in time and up to 4 replicates were performed per cell line.
(§7) Cells were plated at the optimal plating density for that cell line in 96-well plates and allowed to attach overnight. The next day, the medium was removed and replaced with fresh medium containing the dose ranges of test items. […] There were 3 replicates for each test item concentration.
as §3
(§8) Cells were plated at the optimal plating density for that cell line in 96-well plates and allowed to attach overnight. The next day, cells were pre-treated with the inhibitors UO126 or LY294002 (see Tables 18 & 20) for 2 hrs, the medium was removed and replaced with fresh medium containing the appropriate dose of the test item. […] Cells were exposed to these compounds in Roswell Park Memorial Institute (RPMI) medium containing 10% Foetal Calf Serum (FCS) and 2 mM Glutamine at 37° C. and 5% CO2 for 48 hours. There were 3 replicates for each test item concentration.
as §5

[33] = system: MDA-MB-157; test: ATP depletion cytotoxicity assay 48 hr; format: cell-based, human; settings: MDA-MB-157; CXR1002 300 μM; 48 hours
Method: as §6, §7, §3, §8, §5

[34] = system: H (chondrosarcoma); test: ATP depletion cytotoxicity assay 48 hr; settings: LY294002 12.5 μM + CXR1002 0-1 mM; sarcoma cell line H most notably
Method: as §6, §7
Cells were plated at the optimal plating density for that cell line in 96-well plates and allowed to attach overnight. The next day, cells were pre-treated with the inhibitors UO126 or LY294002 (see Tables 18 & 20) for 2 hrs, the medium was removed and replaced with fresh medium containing the appropriate dose of the test item. […] Cells that were to be treated with DPQ received no pre-treatment. […] There were 3 replicates for each test item concentration.

Chain of liver X receptor β (LXRβ) (P55055 whole entry, species assumed): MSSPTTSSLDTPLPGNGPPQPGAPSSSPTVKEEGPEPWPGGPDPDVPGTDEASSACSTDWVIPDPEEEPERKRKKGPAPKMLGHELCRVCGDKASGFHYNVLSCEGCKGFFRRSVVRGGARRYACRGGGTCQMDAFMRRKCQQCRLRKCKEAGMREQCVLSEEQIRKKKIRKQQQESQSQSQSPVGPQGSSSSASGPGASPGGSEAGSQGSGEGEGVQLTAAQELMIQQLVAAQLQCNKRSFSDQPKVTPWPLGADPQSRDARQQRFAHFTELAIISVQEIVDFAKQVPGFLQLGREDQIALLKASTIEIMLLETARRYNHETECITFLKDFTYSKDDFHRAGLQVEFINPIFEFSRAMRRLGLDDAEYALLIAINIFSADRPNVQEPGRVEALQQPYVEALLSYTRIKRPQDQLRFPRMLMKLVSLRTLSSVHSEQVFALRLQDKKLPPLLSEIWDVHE
Chain of retinoid X receptor α (RXRα) (P19793 whole entry, species assumed): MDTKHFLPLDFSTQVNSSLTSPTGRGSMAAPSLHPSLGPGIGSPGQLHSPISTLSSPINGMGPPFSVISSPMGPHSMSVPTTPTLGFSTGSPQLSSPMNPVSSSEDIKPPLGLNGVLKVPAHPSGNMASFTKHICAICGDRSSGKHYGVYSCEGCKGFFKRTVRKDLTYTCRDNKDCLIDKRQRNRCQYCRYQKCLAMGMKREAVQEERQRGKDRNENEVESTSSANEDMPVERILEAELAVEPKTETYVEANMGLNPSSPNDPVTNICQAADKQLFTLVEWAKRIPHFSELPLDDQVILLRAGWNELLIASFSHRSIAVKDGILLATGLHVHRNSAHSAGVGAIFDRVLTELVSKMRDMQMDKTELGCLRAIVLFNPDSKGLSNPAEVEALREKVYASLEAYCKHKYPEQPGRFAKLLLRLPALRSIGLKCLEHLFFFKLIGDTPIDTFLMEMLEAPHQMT
Chain of CYP2C9 (P11712 whole entry): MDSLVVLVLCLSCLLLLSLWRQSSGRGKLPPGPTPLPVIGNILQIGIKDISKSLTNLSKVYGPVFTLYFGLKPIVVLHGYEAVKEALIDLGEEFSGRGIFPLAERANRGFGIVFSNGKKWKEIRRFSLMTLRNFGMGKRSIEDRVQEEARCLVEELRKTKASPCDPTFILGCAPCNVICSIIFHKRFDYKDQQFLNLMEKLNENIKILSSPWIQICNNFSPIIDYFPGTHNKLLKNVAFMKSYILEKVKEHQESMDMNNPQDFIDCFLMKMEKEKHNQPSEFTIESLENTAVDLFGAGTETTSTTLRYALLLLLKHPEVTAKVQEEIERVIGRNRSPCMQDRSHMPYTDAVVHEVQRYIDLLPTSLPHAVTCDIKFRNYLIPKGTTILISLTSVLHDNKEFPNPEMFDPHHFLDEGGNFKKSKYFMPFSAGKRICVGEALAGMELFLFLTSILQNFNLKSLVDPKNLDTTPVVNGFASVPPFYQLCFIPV

Question: Which “sensitivity to combination with CXR1002 vs test item alone” value (“sensitivity … vs test item alone” for short) [1] does the source give for COc1cccc2c1C(=O)c1c(O)c3c(c(O)c1C2=O)C[C@@](O)(C(=O)CO)C[C@@H]3O[C@H]1C[C@H](N)[C@H](O)[C@H](C)O1 [Doxorubicin, Doxorubicin hydrochloride] here?
Answer: increase the sensitivity

Question: Which ER stress response [2] does the source give for CCCCC(CC)COC(=O)c1ccccc1C(=O)OCC(CC)CCCC (stereo not shown) [DEHP] here?
Answer: No evidence of ER stress response was detected

Question: With Cc1cccc(Nc2cc(Cl)nc(SCC(=O)O)n2)c1C [WY14,643] as the compound, how does the ER stress response [2] read?
Answer: No evidence of ER stress response was detected

Question: Which “sensitivity … vs test item alone” value [1] does the source give for Nc1ccn([C@@H]2O[C@H](CO)[C@@H](O)C2(F)F)c(=O)n1 [gemcitabine, Gemcitabine] here?
Answer: increase the sensitivity

Question: Which IC50 [3] does the source give for N#CC(=C(/N)Sc1ccccc1N)/C(C#N)=C(\N)Sc1ccccc1N [U0126] here?
Answer: 10 to 20 µM

Question: With O=C(O)C(F)(F)C(F)(F)C(F)(F)C(F)(F)C(F)(F)C(F)(F)C(F)(F)F [APFO, Ammonium Perfluorooctanoate] as the compound, how does the adverse clinical observations ([4]; after one year of continuous dietary dosing, 300 ppm) read?
Answer: No adverse clinical observations

Question: What about the ALT ([4]; Days 1 (so in the source)) of the same compound?
Answer: 101.90 ± 12.19

Question: And the ALT ([4]; Days 2 (so in the source))?
Answer: 119.45 ± 19.27

Question: And the AST ([4]; Days 2 (so in the source))?
Answer: 120.00 ± 16.47

Question: What about the ALT ([4]; Days 4 (so in the source)) of the same compound?
Answer: 98.99 ± 24.44

Question: What about the AST ([4]; Days 4 (so in the source)) of the same compound?
Answer: 101.80 ± 19.17

Question: And the ALT ([4]; Days 12 (so in the source))?
Answer: 91.89 ± 14.88

Question: And the AST ([4]; Days 12 (so in the source))?
Answer: 92.63 ± 12.19

Question: And the Glucose ([4]; Week 1)?
Answer: 14.31 ± 1.88

Question: And the Glucose ([4]; Week 2)?
Answer: 16.98 ± 3.21

Question: And the Triglycerides ([4]; Week 4)?
Answer: 0.57 ± 0.13

Question: What about the Triglycerides ([4]; Week 12) of the same compound?
Answer: 0.63 ± 0.15

Question: And the “hepatic peroxisome proliferation (induction of cyanide-insensitive palmitoyl CoA oxidation)” value [5]?
Answer: led to hepatic peroxisome proliferation

Question: And the IC50 [6]?
Answer: 512 ± 194 µM

Question: What about the IC50 [7] of the same compound?
Answer: 260 ± 28.3 µM

Question: What about the BrdU incorporation ([8]; 10 μM) of the same compound?
Answer: No marked effects

Question: What about the BrdU incorporation ([8]; 30 μM) of the same compound?
Answer: variable

Question: And the BrdU incorporation ([8]; 300 μM, all but one of the cell lines)?
Answer: Significant suppression of BrdU incorporation

Question: And the IC50 [9]?
Answer: 273 ± 80.2 µM

Question: And the IC50 [10]?
Answer: 230 ± 10 µM

Question: What about the “serum concentration in workers involved in manufacture” value [11] of the same compound?
Answer: ≤ 275 µM

Question: What about the IC50 [12] of the same compound?
Answer: 223 ± 35.4 µM

Question: And the induction of apoptosis ([13]; 10 μM)?
Answer: little effect

Question: What about the induction of apoptosis ([13]; 30 μM) of the same compound?
Answer: variable responses

Question: What about the induction of apoptosis ([13]; 300 μM) of the same compound?
Answer: marked induction of apoptosis

Question: And the Triglycerides ([14]; Week 1)?
Answer: 0.41 ± 0.12

Question: And the Cholesterol ([14]; Week 2)?
Answer: 1.55 ± 0.27

Question: And the Triglycerides ([14]; Week 2)?
Answer: 0.62 ± 0.13

Question: And the Cholesterol ([14]; Week 4)?
Answer: 1.70 ± 0.29

Question: What about the Glucose ([14]; Week 4) of the same compound?
Answer: 15.34 ± 2.64

Question: And the Cholesterol ([14]; Week 12)?
Answer: 1.75 ± 0.33

Question: What about the Glucose ([14]; Week 12) of the same compound?
Answer: 13.12 ± 1.23

Question: And the concentration at 2 weeks ([15]; week 2)?
Answer: 157 ± 77.8 µM

Question: And the concentration at 4 weeks ([15]; week 4)?
Answer: 257 ± 38.9 µM

Question: What about the IC50 [16] of the same compound?
Answer: 317 ± 59.2 µM

Question: What about the IC50 [17] of the same compound?
Answer: 283 ± 5.8 µM

Question: What about the IC50 ([18]; Homo sapiens, Caco-2, 48 h) of the same compound?
Answer: ~740 µM

Question: And the IC50 [18]?
Answer: 737 ± 245 µM

Question: And the ER stress response [2]?
Answer: not seen

Question: And the IC50 ([19]; Homo sapiens, HepG2, 48 h)?
Answer: ~160 µM

Question: And the IC50 [19]?
Answer: 167 ± 97.1 µM

Question: What about the IC50 [20] of the same compound?
Answer: 0.78 µM

Question: What about the IC50 [21] of the same compound?
Answer: 388 ± 227 µM

Question: For CC[C@H](CO)Nc1nc(NCc2ccccc2)c2ncn(C(C)C)c2n1 [roscovitine, Roscovitine], which “sensitivity … vs test item alone” value [1] is on record?
Answer: increase the sensitivity

Question: What does the source list for O=C(O)C(F)(F)C(F)(F)C(F)(F)C(F)(F)C(F)(F)C(F)(F)C(F)(F)F [PFOA, perfluorooctanoic acid]?
Answer: metabolism [22]: not metabolised; acute oral toxicity [23]: moderate acute oral toxicity; clearance of blood levels ([24]; female rats, 24 hrs after dosing): > 95%; accumulation in blood ([24]; female rats, 25 mg/kg oral after 10 previous similar doses): does not appear to accumulate; extent of biliary excretion ([24]; female rats): < 1.0%; time to peak blood levels ([24]; single gavage 25 mg/kg, rats): 1 to 2 h; total radioactivity absorbed ([24]; single oral dose 14C-PFOA 11 mg/kg, male rats, at 24 hrs): at least 93%; tumour incidence (liver, pancreas acinar cell, testes Leydig cell adenomas) ([25]; 30 ppm in the diet): not at 30 ppm; tumour incidence (liver, pancreas acinar cell, testes Leydig cell adenomas) ([25]; 300 ppm in the diet): increased incidence of benign tumours; teratogenic or foetotoxic effects [26]: no teratogenic or foetotoxic effects; activation of LXRβ [27]: Neither liver X receptor β (LXRβ) nor the common heterodimerization partner retinoid X receptor α (RXRα) are activated; concentration causing increased expression of DDIT3/CHOP/GADD153 [28]: ≥ 30 µM; activation of RXRα [29]: Neither liver X receptor β (LXRβ) nor the common heterodimerization partner retinoid X receptor α (RXRα) are activated

Question: Which results are given for O=C1NCCc2c(OCCCCN3CCCCC3)cccc21 [DPQ, reference compound]?
Answer: sensitivity in conjunction with CXR1002 vs CXR1002 alone [30]: increased sensitivity; sensitivity in conjunction with CXR1002 vs CXR1002 alone [31]: increased sensitivity; sensitivity in conjunction with CXR1002 vs CXR1002 alone [32]: increased sensitivity

Question: With O=c1[nH]cc(F)c(=O)[nH]1 [5-FU, 5-Fluorouracil, reference compound] as the compound, how does the “sensitivity … vs test item alone” value [33] read?
Answer: apparent increase in sensitivity

Question: Which “cytotoxic efficacy in conjunction with CXR1002 vs CXR1002 alone” value [34] does the source give for O=c1cc(N2CCOCC2)oc2c(-c3ccccc3)cccc12 [LY294002, reference compound] here?
Answer: increased efficacy
